test system: NL-RLuc virus; assay: Inhibition of HIV replication (NL-RLuc virus, luciferase readout in MT-2 cells); format: cell-based; settings: Human immunodeficiency virus 1, MT2, 120 h, MT-2 cells infected with NL-RLuc virus, 5 days of incubation, 10% FBS, at least 2 experiments
From the text: Inhibition of HIV Replication:
A recombinant NL-RLuc proviral clone was constructed in which a section of the nef gene form NL4-3 was replaced with the Renilla Luciferase gene. This virus is fully infectious and can undergo multiple cycles of replication in cell culture. In addition, the luciferous reporter provides a simple and easy method for quantitating the extent of virus growth and consequently, the antiviral activity of test compounds. The plasmid pNLRLuc contains the proviral NL-Rluc DNA cloned into pUC18 at the PvuII site. The NL-RLuc virus was prepared by transfection of 293T cells with the plasmid pNLRLuc. Transfections were performed using the LipofectAMINE PLUS kit form Invitrogen (Carlsbad, Calif.) according to the manufacturer and the virus generated was titered in MT-2 cells. For susceptibility analyses, the titrated virus was used to infect MT-2 cells in the presence of compound, and after 5 days of incubation, cells were processed and quantitated for virus growth by the amount of expressed luciferase. Assay media was RPMI 1640 supplemented with 10% heat inactivated fetal bovine serum (FBS), 100 units/ml penicillin G/100 units/ml streptomycin, 10 mM HEPES buffer pH 7.55 and 2 mM L-glutamine. The results form at least 2 experiments were used to calculate the EC50 values. Luciferase was quantitated using the Dual Luciferase kit form Promega (Madison, Wis.). Susceptibility of viruses to compounds was determined by incubation in the presence of serial dilutions of the compound. The 50% effective concentration (EC50) was calculated by using the exponential form of the median effect equation where (Fa)=1/[1+(ED50/drug conc.)^m](Johnson V A, Byington R T. Infectivity Assay. In Techniques in HIV Research. ed. Aldovini A, Walker B D. 71-76. New York: Stockton Press. 1990).

| Structure (SMILES) | EC50 [nM] |
| --- | --- |
| Cc1ncc(-c2ccc(/C=C/C(C)C)nc2)c(N2CCC(C)(C)CC2)c1[C@H](OC(C)(C)C)C(=O)O [Example 421, (S,E)-2-(tert-Butoxy)-2-(4-(4,4-dimethylpiperidin-1-yl)-6-methyl-6′-(3-methylbut-1-en-1-yl)-[3, 3′-bipyridin]-5-yl)acetic acid] | 8 |
| Cc1nc(CN2CCC3(CCC3)CC2)c(-c2ccc(F)cc2)c(N2CCC(C)(C)CC2)c1[C@H](OC(C)(C)C)C(=O)O [Example 191, (2S)-2-[6-({7-Azaspiro[3.5]nonan-7-yl}methyl)-4-(4,4-dimethylpiperidin-1-yl)-5-(4-fluorophenyl)-2-methylpyridin-3-yl]-2-(tert-butoxy)acetic acid] | 2 |
| COc1nc(C)c(-c2ccc(OCCc3ccc(F)cc3)cc2)c(N2CCC(C)(C)CC2)c1[C@H](OC(C)(C)C)C(=O)O [Example 3, (S)-2-(tert-Butoxy)-2-(4-(4,4-dimethylpiperidin-1-yl)-5-(4-(4-fluorophenethoxy)phenyl)-2-methoxy-6-methylpyridin-3-yl)acetic acid] | 8 |
| Cc1ncc(-c2ccc(OCCc3ccc(F)cc3)c(C#N)c2)c(N2CCC(C)(C)CC2)c1[C@H](OC(C)(C)C)C(=O)O [Example 256, (S)-2-(tert-Butoxy)-2-(5-(3-cyano-4-(4-fluorophenethoxy)phenyl)-4-(4,4-dimethylpiperidin-1-yl)-2-methylpyridin-3-yl)acetic acid] | 0.8 |
| CC1(C)CCN(c2c(-c3ccc(OCCc4ccc(F)cc4)cn3)cnc(CO)c2[C@H](OC(C)(C)C)C(=O)O)CC1 [Example 269, (S)-2-(tert-Butoxy)-2-(4′-(4,4-dimethylpiperidin-1-yl)-5-(4-fluorophenethoxy)-6′-(hydroxymethyl)-[2, 3′-bipyridin]-5′-yl)acetic acid] | 9 |
| Cc1ncc(-c2ccc(OCCc3c(F)cccc3F)cn2)c(N2CCC(C)(C)CC2)c1[C@H](OC(C)(C)C)C(=O)O [Example 327, (2S)-2-(tert-butoxy)-2-{5-[2-(2,6-difluorophenyl)ethoxy]-4′-(4,4-dimethylpiperidin-1-yl)-6′-methyl-[2,3′-bipyridine]-5′-yl}acetic acid] | 5 |
| Cc1nn(-c2nc(C)c([C@H](OC(C)(C)C)C(=O)O)c(N3CCC(C)(C)CC3)c2-c2ccc(OCCc3ccc(F)cc3)cc2)c(C)c1C [Example 75, (S)-2-(tert-Butoxy)-2-(4-(4,4-dimethylpiperidin-1-yl)-5-(4-(4-fluorophenethoxy)phenyl)-2-methyl-6-(3,4,5-trimethyl-H-pyrazol-1-yl)pyridin-3-yl)acetic acid] | 3 |
| Cc1ncc(-c2ccc(OCCc3cccc(F)c3)c(F)c2)c(N2CCC(C)(C)CC2)c1[C@H](OC(C)(C)C)C(=O)O [Example 257, (S)-2-(tert-Butoxy)-2-(4-(4,4-dimethylpiperidin-1-yl)-5-(3-fluoro-4-(3-fluorophenethoxy)phenyl)-2-methylpyridin-3-yl)acetic acid] | 1 |
| Cc1nc(NCCN2CCN(C)CC2)c(-c2ccc(OCCc3ccc(F)cc3)cc2)c(N2CCC(C)(C)CC2)c1[C@H](OC(C)(C)C)C(=O)O [Example 43, (S)-2-(tert-Butoxy)-2-(4-(4,4-dimethylpiperidin-1-yl)-5-(4-(4-fluorophenethoxy)phenyl)-2-methyl-6-((2-(4-methylpiperazin-1-yl)ethyl)amino)pyridin-3-yl)acetic acid] | 0.6 |
| CC1(C)CCN(c2c(-c3ccc(OCCc4ccc(F)cc4)cc3)cnc(C#N)c2[C@H](OC(C)(C)C)C(=O)O)CC1 [Example 222, (S)-2-(tert-Butoxy)-2-(2-cyano-4-(4,4-dimethylpiperidin-1-yl)-5-(4-(4-fluorophenethoxy)phenyl)pyridin-3-yl)acetic acid] | 8 |
| Cc1ncc(-c2cnc(OCCCc3ccccc3)c(F)c2)c(N2CCC(C)(C)CC2)c1[C@H](OC(C)(C)C)C(=O)O [Example 406, (2S)-2-(tert-butoxy)-2-[4-(4,4-dimethylpiperidin-1-yl)-5′-fluoro-6-methyl-6′-(3-phenylpropoxy)-[3,3′-bipyridine]-5-yl]acetic acid] | 4 |
| Cc1cc(OCC(C)C)ncc1-c1cnc(C)c([C@H](OC(C)(C)C)C(=O)O)c1N1CCC(C)(C)CC1 [Example 429, (2S)-2-tert-Butoxy-2-(4-(4,4-dimethylpiperidin-1-yl)-6′-isobutoxy-4′,6-dimethyl-3, 3′-bipyridin-5-yl)acetic acid] | 219 |
| Cc1cccnc1Nc1nc(C)c([C@H](OC(C)(C)C)C(=O)O)c(N2CCC(C)(C)CC2)c1-c1ccc(OCCc2ccc(F)cc2)cc1 [Example 65, (S)-2-(tert-Butoxy)-2-(4-(4,4-dimethylpiperidin-1-yl)-5-(4-(4-fluorophenethoxy)phenyl)-2-methyl-6-((3-methylpyridin-2-yl)amino)pyridin-3-yl)acetic acid] | 2 |
| Cc1ncc(-c2cnc(OCCc3c(F)cccc3F)c(F)c2)c(N2CCC(C)(C)CC2)c1[C@H](OC(C)(C)C)C(=O)O [Example 393, (2S)-2-(tert-butoxy)-2-{6′-[2-(2,6-difluorophenyl)ethoxy]-4-(4,4-dimethylpiperidin-1-yl)-5′-fluoro-6-methyl-[3,3′-bipyridine]-5-yl}acetic acid] | 2 |
| Cc1ncc(-c2ccc(CN(C)c3ncnc4c3oc3ccccc34)cc2)c(N2CCC(C)(C)CC2)c1[C@H](OC(C)(C)C)C(=O)O [Example 20, (2S)-2-(tert-Butoxy)-2-[4-(4,4-dimethylpiperidin-1-yl)-2-methyl-5-(4-{[methyl({8-oxa-3,5-diazatricyclo[7.4.0.0^2,7]trideca-1(9),2(7),3,5,10,12-hexaen-6-yl})amino]methyl}phenyl)pyridin-3-yl]acetic acid] | 2 |
| Cc1ncc(-c2ccc(O[C@@H](C)c3ccccc3)cn2)c(N2CCC(C)(C)CC2)c1[C@H](OC(C)(C)C)C(=O)O [Example 349, (2S)-2-(tert-butoxy)-2-[4′-(4,4-dimethylpiperidin-1-yl)-6′-methyl-5-[(1S)-1-phenylethoxy]-[2,3′-bipyridine]-5′-yl]acetic acid] | 1 |
| CC(=O)N1CCC(Nc2nc(C)c([C@H](OC(C)(C)C)C(=O)O)c(N3CCC(C)(C)CC3)c2-c2ccc(OCCc3ccc(F)cc3)cc2)CC1 [Example 100, (S)-2-(6-((1-Acetylpiperidin-4-yl)amino)-4-(4,4-dimethylpiperidin-1-yl)-5-(4-(4-fluorophenethoxy)phenyl)-2-methylpyridin-3-yl)-2-(tert-butoxy)acetic acid] | 0.5 |
| Cc1ncc(-c2ccc(OCC(C)C)nc2F)c(N2CCC(C)(C)CC2)c1[C@H](OC(C)(C)C)C(=O)O [Example 434, (2S)-2-tert-Butoxy-2-(4-(4,4-dimethylpiperidin-1-yl)-2′-fluoro-6′-isobutoxy-6-methyl-3, 3′-bipyridin-5-yl)acetic acid] | 13 |
| Cc1nc(C(=O)N2CCS(=O)(=O)CC2)c(-c2ccc(OCCc3ccc(F)cc3)cc2)c(N2CCC(C)(C)CC2)c1[C@H](OC(C)(C)C)C(=O)O [Example 10, (S)-2-(tert-Butoxy)-2-(4-(4,4-dimethylpiperidin-1-yl)-6-(1,1-dioxidothiomorpholine-4-carbonyl)-5-(4-(4-fluorophenethoxy)phenyl)-2-methylpyridin-3-yl)acetic acid] | 31 |
| C=Cc1nc(C)c(-c2ccc(OCCc3ccc(F)cc3)cc2)c(N2CCC(C)(C)CC2)c1[C@H](OC(C)(C)C)C(=O)O [Example 1, (S)-2-(tert-Butoxy)-2-(4-(4,4-dimethylpiperidin-1-yl)-5-(4-(4-fluorophenethoxy)phenyl)-6-methyl-2-vinylpyridin-3-yl)acetic acid] | 20 |
| Cc1nc(NCC2CCN(C)CC2)c(-c2ccc(OCCc3ccc(F)cc3)cc2)c(N2CCC(C)(C)CC2)c1[C@H](OC(C)(C)C)C(=O)O [Example 42, (S)-2-(tert-Butoxy)-2-(4-(4,4-dimethylpiperidin-1-yl)-5-(4-(4-fluorophenethoxy)phenyl)-2-methyl-6-(((1-methylpiperidin-4-yl)methyl)amino)pyridin-3-yl)acetic acid] | 3 |
| Cc1ncc(-c2cnc(OCC(C)(C)c3ccccc3)c(F)c2)c(N2CCC(C)(C)CC2)c1[C@H](OC(C)(C)C)C(=O)O [Example 402, (2S)-2-(tert-butoxy)-2-[4-(4,4-dimethylpiperidin-1-yl)-5′-fluoro-6-methyl-6′-(2-methyl-2-phenylpropoxy)-[3,3′-bipyridine]-5-yl]acetic acid] | 3 |

same assay, conditions: MT-2 cells infected with NL-RLuc virus, 5 days of incubation, 10% FBS, at least 2 experiments

| Structure (SMILES) | EC50 [nM] |
| --- | --- |
| Cc1nc(Nc2ccnc(F)c2)c(-c2ccc(OCCc3ccc(F)cc3)cc2)c(N2CCC(C)(C)CC2)c1[C@H](OC(C)(C)C)C(=O)O [Example 95, (S)-2-(tert-Butoxy)-2-(4-(4,4-dimethylpiperidin-1-yl)-5-(4-(4-fluorophenethoxy)phenyl)-6-((2-fluoropyridin-4-yl)amino)-2-methylpyridin-3-yl)acetic acid] | 8 |
